# Measurements as given in ChEMBL document CHEMBL1201862, “PubChem BioAssay data set” (2004).
# Several values for one entry are separate records, joined by “and”; a condition that tells them apart may be missing. Equal values may be shown once. Activity calls are given as the source filed them.
# Columns and labels:
# [1] = viability of PTEN-deleted HCT116 cells – cell-based, HCT116 PTEN knockout, dose response (AID 1047); type: functional;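 further: HCT116 colon tumor cells with PTEN knocked out; cells exposed to compound for 60 hours before readout; potency for loss of cell viability measured by luminescence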
# [2] = viability of HCT116 lacking mutant beta-catenin – cell-based, human colon tumor, dose response (AID 1045); type: functional;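 further: HCT116 colon tumor cells with beta catenin knocked out; cells exposed to compound for 60 hours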
# [3] = microbe, parasite or virus in culture; type: functional; conditions: Mycobacterium tuberculosis
# [4] = Luminescence Cell-Based Dose Retest to Confirm Inhibitors of Cancer Stem Cells. [Related pubchem assays (depositor defined):AID2717, AID2721]; type: functional; conditions: Homo sapiens
# [5] = biological target: T1, Protein skinhead-1 (Caenorhabditis elegans, UniProt P34707); type: functional
# T1 sequence (P34707 whole entry): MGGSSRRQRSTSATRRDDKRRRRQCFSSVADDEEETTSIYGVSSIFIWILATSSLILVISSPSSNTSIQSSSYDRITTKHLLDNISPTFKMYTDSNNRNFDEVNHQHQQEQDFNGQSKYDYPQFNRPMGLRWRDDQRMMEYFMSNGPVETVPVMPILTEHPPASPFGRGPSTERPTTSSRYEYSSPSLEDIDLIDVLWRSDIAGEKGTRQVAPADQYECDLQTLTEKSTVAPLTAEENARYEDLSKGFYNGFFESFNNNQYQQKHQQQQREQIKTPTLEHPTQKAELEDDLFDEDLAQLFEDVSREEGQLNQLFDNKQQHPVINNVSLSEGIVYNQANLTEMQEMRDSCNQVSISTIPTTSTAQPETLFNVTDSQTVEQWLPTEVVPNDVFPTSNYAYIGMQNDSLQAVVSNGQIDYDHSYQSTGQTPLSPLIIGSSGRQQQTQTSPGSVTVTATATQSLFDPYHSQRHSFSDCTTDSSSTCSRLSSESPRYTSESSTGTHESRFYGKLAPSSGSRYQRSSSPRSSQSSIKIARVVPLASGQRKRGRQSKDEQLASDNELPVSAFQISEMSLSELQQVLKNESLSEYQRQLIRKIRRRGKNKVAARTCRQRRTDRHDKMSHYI
# [6] = cells; type: functional, cell-based
# [7] = cells; type: functional, cell-based; remark: listed apart in the source
# [8] = biological target: T2, RNA-binding protein pos-1 (Caenorhabditis elegans, UniProt G5EF15); assay: disruptors of C. elegans POS-1 RNA interaction – biochemical, fluorescence polarization, dose response (AID 1964);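 further: purified POS-1 fused to maltose binding protein made in E. coli; potency of compounds blocking POS-1 binding to fluorescent RNA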
# T2 sequence (G5EF15 whole entry): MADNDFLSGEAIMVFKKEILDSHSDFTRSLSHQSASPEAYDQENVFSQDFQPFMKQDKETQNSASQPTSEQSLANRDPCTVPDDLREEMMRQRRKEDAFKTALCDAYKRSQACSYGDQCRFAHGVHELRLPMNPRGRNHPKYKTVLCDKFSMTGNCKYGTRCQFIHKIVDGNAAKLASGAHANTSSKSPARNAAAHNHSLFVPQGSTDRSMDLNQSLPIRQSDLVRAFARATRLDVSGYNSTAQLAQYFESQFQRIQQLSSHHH
# [9] = biological target: T3, Zinc finger protein mex-5 (Caenorhabditis elegans, UniProt Q9XUB2); assay: potency of MEX-5 RNA-binding blockers – biochemical, C. elegans, fluorescence polarization, dose response (AID 1960)
# T3 sequence (Q9XUB2 whole entry): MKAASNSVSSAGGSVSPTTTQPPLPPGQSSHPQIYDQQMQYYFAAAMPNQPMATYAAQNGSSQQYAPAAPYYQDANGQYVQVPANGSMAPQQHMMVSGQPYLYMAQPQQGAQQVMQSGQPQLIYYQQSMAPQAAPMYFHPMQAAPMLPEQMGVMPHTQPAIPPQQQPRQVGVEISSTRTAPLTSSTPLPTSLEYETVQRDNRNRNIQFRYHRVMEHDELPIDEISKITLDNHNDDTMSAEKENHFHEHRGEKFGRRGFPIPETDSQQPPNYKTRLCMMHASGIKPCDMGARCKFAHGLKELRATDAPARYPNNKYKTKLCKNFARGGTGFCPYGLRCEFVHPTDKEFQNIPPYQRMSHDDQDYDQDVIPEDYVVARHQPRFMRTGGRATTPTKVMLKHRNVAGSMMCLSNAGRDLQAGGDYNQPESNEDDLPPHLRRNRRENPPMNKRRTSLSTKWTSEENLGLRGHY
# [10] = biological target: Cytochrome P450 3A4 (Homo sapiens, UniProt P08684); conditions: Potency;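 further: confirmatory qHTS run detecting inhibitors and substrates of CYP3A4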
# [11] = cells; type: functional
# [12] = blockers of HIV-1 envelope-mediated cell-cell fusion – cherry-pick, dose response (AID 652057); type: functional, cell-based
# [13] = HIV-1 AD8 envelope cell-cell fusion blockers – cherry-pick, dose response (AID 652062); type: functional, cell-based;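 further: luciferase signal from cell-cell fusion driven by HIV-1 clade B AD8 Env; potency is for inhibitors of fusion seen as a drop in luminescence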
# [14] = system: INS1; assay: INS-1E survival protection against cytokine death – cell-based, luminescence, retest, dose response (AID 449756); type: functional; conditions: Rattus norvegicus;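 further: cell death triggered by IL-1 beta plus TNF-alpha plus IFN-gamma mixture; protective hits raise ATP signal compared with cytokine alone wells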
# [15] = system: Streptococcus; assay: GAS UMAA2166 growth inhibition – luminescence, BacTiterGlo, counter-screen for streptokinase expression inhibitor project, dose response (AID 1915); type: functional, organism-based;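 further: potency for reduction of bacterial viability or growth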
# [16] = system: Streptococcus sp. 'group A'; assay: Streptococcus pyogenes SK(-)GAS viability under kanamycin – luminescence, BacTiterGlo, confirmation, counter-screen for streptokinase expression inhibitor project, dose response (AID 1900); type: functional, organism-based
# [17] = biological target: T4, Streptokinase A (Streptococcus pyogenes serotype M1, UniProt P10520); assay: viability-normalized secreted streptokinase activity reduction – plasminogen activation absorbance, OD405, dose response (AID 1914); type: functional, Streptococcus pyogenes M1 GAS;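 further: secreted streptokinase activity via plasminogen activation per viability signal from cell pellet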
# T4 sequence (P10520 whole entry): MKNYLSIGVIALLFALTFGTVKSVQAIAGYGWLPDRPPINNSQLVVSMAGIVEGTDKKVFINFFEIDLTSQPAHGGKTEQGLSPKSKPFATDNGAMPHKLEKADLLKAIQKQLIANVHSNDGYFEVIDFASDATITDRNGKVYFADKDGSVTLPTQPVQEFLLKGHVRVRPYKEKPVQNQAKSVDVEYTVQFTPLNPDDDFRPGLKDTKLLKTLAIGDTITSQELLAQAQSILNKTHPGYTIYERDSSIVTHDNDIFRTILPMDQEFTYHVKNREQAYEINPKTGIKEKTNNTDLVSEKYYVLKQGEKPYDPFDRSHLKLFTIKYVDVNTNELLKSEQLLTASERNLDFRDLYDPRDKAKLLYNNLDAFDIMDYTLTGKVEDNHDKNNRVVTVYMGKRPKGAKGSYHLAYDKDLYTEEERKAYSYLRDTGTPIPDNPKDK
# [18] = biological target: Paired box protein Pax-8 (Homo sapiens, UniProt Q06710); assay: PAX8 transcriptional activity inhibition in RMG-I – RMG-I cells, luciferase, cherry-pick, dose response (AID 687027); type: functional, cell-based;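 further: luciferase reporter driven by Pax8 target thyroperoxidase promoter measured by SteadyGlo luminescence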
# [19] = non-specific 3'UTR reporter inhibition in Clone20-Shn3RL – cell-based, Renilla luciferase, cherry-picked, counter-screen for Shn3 inhibitor project, dose response (AID 624133); type: functional
# [20] = reduction of Shn3 3'UTR-driven luciferase in osteoblasts – cell-based, Clone20 osteoblasts, firefly luciferase, cherry-picked, dose response (AID 624132); type: functional;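 further: firefly luciferase luminescence from reporter carrying the Shn3 3'UTR in osteoblasts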
# [21] = loss of viability in HepG2 cells – cell-based, CellTiter-Glo, cherry-picked, cytotoxicity control for Shn3 inhibitor project, dose response (AID 624134); type: functional
# Chain of Cytochrome P450 3A4 (P08684 whole entry): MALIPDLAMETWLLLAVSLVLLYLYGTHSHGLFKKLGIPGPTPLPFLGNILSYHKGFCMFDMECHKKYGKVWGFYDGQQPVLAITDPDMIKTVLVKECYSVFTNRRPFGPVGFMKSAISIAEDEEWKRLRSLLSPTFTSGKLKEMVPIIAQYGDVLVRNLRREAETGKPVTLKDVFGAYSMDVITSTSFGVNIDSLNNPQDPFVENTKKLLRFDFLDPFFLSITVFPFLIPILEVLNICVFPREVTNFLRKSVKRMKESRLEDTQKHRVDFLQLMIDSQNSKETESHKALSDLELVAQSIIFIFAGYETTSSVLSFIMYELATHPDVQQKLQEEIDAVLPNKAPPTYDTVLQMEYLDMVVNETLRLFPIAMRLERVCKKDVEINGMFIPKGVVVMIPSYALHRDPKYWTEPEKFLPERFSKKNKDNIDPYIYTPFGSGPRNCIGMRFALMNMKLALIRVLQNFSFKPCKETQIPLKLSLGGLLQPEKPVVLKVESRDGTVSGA
# Chain of Paired box protein Pax-8 (Q06710 whole entry): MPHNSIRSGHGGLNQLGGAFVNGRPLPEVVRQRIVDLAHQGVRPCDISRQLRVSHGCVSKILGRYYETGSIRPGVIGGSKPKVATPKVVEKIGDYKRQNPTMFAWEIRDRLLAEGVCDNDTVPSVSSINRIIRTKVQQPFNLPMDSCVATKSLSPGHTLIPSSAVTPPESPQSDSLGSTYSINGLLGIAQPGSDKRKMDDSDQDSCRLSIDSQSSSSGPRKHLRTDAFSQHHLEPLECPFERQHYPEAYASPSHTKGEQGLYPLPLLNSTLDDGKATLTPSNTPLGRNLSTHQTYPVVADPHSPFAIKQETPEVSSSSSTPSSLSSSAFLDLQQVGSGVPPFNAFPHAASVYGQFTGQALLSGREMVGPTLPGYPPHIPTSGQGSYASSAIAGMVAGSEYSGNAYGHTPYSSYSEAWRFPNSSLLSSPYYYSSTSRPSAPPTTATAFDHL
smiles,measurement,setting,value
CCOC(=O)c1cc2c(N)c(C(=O)c3cc(C#N)c(SC)nc3C)sc2nc1C,EC50,[1],8.22 µM (active)
same,EC50,[2],8.35 µM (active)
Cc1nn(Cc2ccccc2)c(C)c1C(=O)OCC(=O)c1cc(C)n(CC(F)(F)F)c1C,CC50,[3],> 40 µM (active)
same,AC50,[4],4.47 µM (active)
c1csc(-c2ccc3ccccc3n2)c1,IC50,[5],35.1 µM (active)
CC1(OC(=O)c2cccs2)C(=O)C=C2C=C(C3CC3)OC=C2C1=O (stereo not given),EC50,[6],> 350 µM (not active)
same,EC50,[7],> 350 µM (not active)
same,EC50,[8],42.3 µM (active)
same,EC50,[9],33 µM (active)
CCCn1c(-c2ccc(F)cc2)nc2c(N3CCC(N(C)C)C3)nc(C)nc21 (stereo not given),AC50,[10],15.8 µM (inconclusive)
Cc1cc(NC(=O)C2CC(=O)N(c3cccc(C)c3C)C2)no1 (stereo not given),EC50,[6],> 350 µM (not active)
same,EC50,[7],> 350 µM (not active)
O=C(NCCCN1CCOCC1)c1cc(-c2ccccc2F)no1,EC50,[6],> 350 µM (not active)
same,EC50,[7],113 µM (active)
CN=C(S)N=Nc1c(O)[nH]c2ccc(C(C)C)cc12,EC50,[1],22.4 µM (active)
same,EC50,[2],17.6 µM (active)
Fc1ccc(-c2csc(-c3ccncc3)n2)cc1,IC50,[5],10.5 µM (active)
CCC(=O)Nc1cccc(C(=O)/C=C/c2cc(Br)ccc2OC)c1,EC50,[1],1.3 µM (active)
same,EC50,[2],0.933 µM (active)
O=C(CCSc1nnc(-c2ccccc2)o1)N1CCOCC1,IC50,[11],20.7 µM (active)
Nc1c(C(=O)Nc2cccc(Cl)c2Cl)sc2nc(-c3cccnc3)ccc12,EC50,[1],5.65 µM (active)
same,EC50,[2],11 µM (active)
CC(C)n1c(NCCc2ccccc2)nc2c1c(=O)n(C)c(=O)n2C,AC50,[12],21.2 µM (active)
same,AC50,[13],17.9 µM (active)
CC(C)(C)Sc1ccc2nc3c(n2c1)CCCC3,IC50,[11],29 µM (active)
same,AC50,[14],14.7 µM (active)
c1ccc(Nc2nc(N3CCCCC3)nc(N3CCNCC3)n2)cc1,EC50,[1],12.7 µM (active)
same,CC50,[3],23.5 µM (active)
same,EC50,[2],14.3 µM (active)
Cc1c(C(=O)N2CCCCC2)c(S(=O)(=O)NCCc2ccc(Cl)cc2)c(C)n1C,EC50,[6],> 350 µM (not active)
same,EC50,[7],> 350 µM (not active)
O=c1c(O)c(-c2cccs2)oc2ccccc12,CC50,[3],> 40 µM (active)
same,EC50,[15],> 150 µM (not active)
same,EC50,[16],3.69 µM (active)
same,EC50,[17],> 150 µM (not active)
Cc1ccc(C)c(SCC(=O)OCC(=O)N2CC(C)OC(C)C2)c1 (stereo not given),EC50,[6],> 350 µM (not active)
same,EC50,[7],> 350 µM (not active)
COc1ccc(C(=O)Nc2cccc(OC(=O)c3ccc(C)c(C)c3)c2)cc1,IC50,[5],> 100 µM (inactive)
O=C(NC1CC2CCC1C2)C1COc2ccccc2O1 (stereo not given),IC50,[11],> 50 µM (active)
Cc1cc(Nc2ccccc2)cc(=O)n1C,EC50,[6],> 350 µM (not active)
same,EC50,[7],> 350 µM (not active)
Clc1ccc(SCc2cc(-c3ccc(Cl)cc3)on2)cc1,IC50,[5],> 100 µM (inactive)
O=C(NNc1c(F)c(F)cc(F)c1F)c1cc2ccccc2oc1=O,IC50,[11],48 µM (active)
Cc1ccc(NC(=O)Cn2cc(S(=O)(=O)c3ccc(C)cc3)c(=O)c3cc(F)ccc32)cc1,EC50,[1],10.9 µM (active)
same,EC50,[2],9.08 µM (active)
COc1ccccc1/C=C/C1=CC2(C)CC1(C)C(c1ccccc1OC)CC2=O (stereo not given),AC50,[10],3.16 µM (inconclusive)
CCOc1ccc(NC(=O)Nc2cc(OCC(F)(F)F)cc(OCC(F)(F)F)c2)cc1,EC50,[1],16.9 µM (active)
same,AC50,[18],8.08 µM (active)
same,EC50,[2],19.1 µM (active)
Cc1ccc(C)c(-c2nnc(NC(=O)COc3ccccc3)o2)c1,IC50,[11],5.98 µM (active)
same,EC50,[15],23.1 µM (active)
same,EC50,[16],1.18 µM (active)
same,EC50,[17],> 150 µM (not active)
CCc1nc2oc3ccccc3c(=O)c2c(=O)n1-c1ccccc1,IC50,[5],> 100 µM (inactive)
Cc1nc(NC2CCCCC2)c2nc(-c3ccccc3)n(CCN(C)C)c2n1,AC50,[10],25.1 µM (inconclusive)
COc1ccc(COC(=O)CCNC(=O)c2ccc(Cl)cc2)cc1,IC50,[11],> 50 µM (active)
CCc1ccc(C(=O)Nc2ccc3nc(C)ccc3c2)cc1,IC50,[5],10.1 µM (active)
CN(C)c1ccc(C(=N)c2ccc(N(C)C)cc2)cc1,AC50,[10],15.8 µM (inconclusive)
O=C(NCc1ccc(Cl)cc1)C1CCN(c2nnc(N3CCCC3=O)s2)CC1,IC50,[5],> 100 µM (inactive)
COc1ccc(CC(N)c2csc(NC(=O)NC(c3ccccc3)c3ccccc3)n2)cc1 (stereo not given),AC50,[19],19.3 µM (active)
same,AC50,[20],6.4 µM (active)
same,AC50,[21],21.1 µM (active)
CC(C)c1ccc(NC(=O)Nc2nc(C(N)COCc3ccccc3)cs2)cc1 (stereo not given),AC50,[19],10.8 µM (active)
same,AC50,[20],5.99 µM (active)
same,AC50,[21],18.1 µM (active)
O=C(O)C(Oc1ccc2ccccc2c1)c1ccccc1 (stereo not given),IC50,[5],> 100 µM (inactive)
Cc1cccc(NC(=O)CSc2nc3ccccc3c(=O)n2C)c1C,AC50,[19],15.2 µM (active)
same,AC50,[20],2.98 µM (active)
same,AC50,[21],39 µM (active)
COc1ccc(NC(=O)Nc2ccc3c(c2)C(=O)N([C@H](C)CO)C[C@H](C)[C@H](CN(C)S(=O)(=O)c2ccc(OC)cc2)O3)cc1,AC50,[12],2.08 µM (active)
same,AC50,[13],4.67 µM (active)
COC(=O)C1=C(C)N(Cc2ccccc2)[C@]23O[C@](C(=O)OC)(C(=O)N2C1c1ccccc1)C1C(=O)N(C)C(=O)C13 (stereo not given in full),AC50,[10],2.51 µM (inconclusive) and 3.16 µM (inconclusive)
Cc1cccc(/C=N/NC(=O)c2ccc3c(c2)OCCO3)c1O,EC50,[6],6.39 µM (active)
same,EC50,[7],66.1 µM (active)
same,AC50,[14],1.8 µM (active)
same,EC50,[15],6.82 µM (active)
same,EC50,[16],3.05 µM (active)
Cc1cc(O)cc(=O)o1,AC50,[10],39.8 µM (inconclusive)
CC(=O)Oc1cc(OC(C)=O)c2c(=O)cc(-c3ccc(OC(C)=O)c(OC(C)=O)c3)oc2c1,AC50,[10],0.794 µM (inconclusive)
CC1(C)[C@@H](O)CC[C@]2(C)[C@H]3C(=O)C=C4[C@@H]5C[C@@](C)(C(=O)O)CC[C@]5(C)CC[C@@]4(C)[C@]3(C)CC[C@@H]12 [ENOXOLONE],AC50,[10],15.8 µM (inconclusive)
